According to US8217141B2, “Crystalline and amorphous forms of peptide” (Neopro Labs, LLC, priority 2007, dated 2012):
Where a SMILES comes first, the peptide text is derived from it.

Experiments:
[1] = Approximate solubility, solvent addition method; format: physicochemical; details: ambient temperature
Method: A weighed sample of SEQ ID NO:1 (a polypeptide of amino acids F-L-P—S) was treated with aliquots of the test solvent at ambient temperature. Complete dissolution of the test material was determined by visual inspection. Solubility was estimated based on the total solvent used to provide complete dissolution. The actual solubility may be greater than the value calculated because of the use of solvent aliquots that were too large or due to a slow rate of dissolution. […] If complete dissolution was achieved as a result of only one aliquot addition, the solubility is expressed as “greater than”.

[2] = Dynamic vapor sorption/desorption (DVS); format: physicochemical; details: for weight gain, adsorption: 5%-95% RH; for weight loss, desorption: 95%-5% RH
Method: Moisture sorption/desorption data were collected on a VTI SGA-100 Vapor Sorption Analyzer. Sorption and desorption data were collected over a range of 5% to 95% relative humidity (RH) at 10% RH intervals under a nitrogen purge. Samples were not dried prior to analysis. Equilibrium criteria used for analysis were less than 0.0100% weight change in 5 minutes, with a maximum equilibration time of 3 hours if the weight criterion was not met. Data were not corrected for the initial moisture content of the samples. Sodium chloride and polyvinypyrrolidine were used as calibration standards.

solubility ([1]; 1-Butanol): ≥ 43 mg/mL
solubility ([1]; 2-Butanone): ≥ 20 mg/mL
solubility ([1]; 2-Propanol): ≥ 20 mg/mL
solubility ([1]; Acetone): ≥ 40 mg/mL
solubility ([1]; Acetonitrile (ACN)): ≥ 19 mg/mL
solubility ([1]; Chloroform): ≤ 1.9 mg/mL
solubility ([1]; Dichloromethane (DCM)): ≥ 20 mg/mL
solubility ([1]; Ethanol (EtOH)): ≥ 52 mg/mL
solubility ([1]; Ethyl acetate (EtOAc)): ≥ 20 mg/mL
solubility ([1]; Heptane): ≤ 2 mg/mL
solubility ([1]; Isopropyl ether): ≤ 2.7 mg/mL
solubility ([1]; Methanol (MeOH)): ≥ 50 mg/mL
solubility ([1]; Pentane): ≤ 2 mg/mL
solubility ([1]; Tetrahydrofuran (THF)): ≥ 44 mg/mL
solubility ([1]; Toluene): ≤ 3.6 mg/mL
solubility ([1]; Water, visual inspection): ≥ 60 mg/mL
weight gain, adsorption [2]: 5%-95% RH; 25.0 w % (gain),
weight gain, adsorption ([2]; listed as SEQ ID NO:1): 25.0 w %
weight loss, desorption [2]: 95%-5% RH; 28.2 w % (loss)
weight loss, desorption ([2]; listed as SEQ ID NO:1): 28.2 w %
final weight loss after the desorption step ([2]; at ~5% RH, relative to original weight): 4.4%
initial weight loss ([2]; on equilibration at ~5% RH, as received material): 1.3%
weight gain on the sorption step ([2]; up to ~95% RH, relative to original weight): approximately 23.7%
Compound: CC(C)CC(NC(=O)C(N)Cc1ccccc1)C(=O)N1CCCC1C(=O)NC(CO)C(=O)O (centres unmarked) [SEQ ID NO: 1] (H-FLPS-OH; configuration not given here)
